# Laboratory results taken from patent US20090233795A1, “Fungicidal Mixtres Based On 3-Monosubstituted N-Bipenyl-Pyrazolecarboxamides” (BASF Akitengesellschaft, priority 2005, published 2009).
# Like-named read-outs stand apart in the source and are kept apart here.
# Tests used:
# [1] = system: Erysiphe [syn. Blumeria] graminis forma specialis. tritici; assay: Activity against mildew of wheat; format: in vivo; details: 1 mg/l, sprayed 24 hours before inoculation, rated after 7 days
# Botrytis cinerea = assay: Activity against gray mold on bell pepper leaves, 1 day protective application; format: in vivo; details: sprayed 1 day before inoculation, rated after 5 days
# Puccinia recondita [2] = assay: Curative activity against brown rust of wheat; format: in vivo; details: sprayed the day after inoculation, 7 days
# Pyrenophora teres = assay: Activity against net blotch of barley, 1 day protective application; format: in vivo, Pyrenophora [syn. Drechslera] teres; details: sprayed 24 hours before inoculation, rated after 6 days
# Septoria tritici = assay: Activity against the speckled leaf blotch pathogen in the microtiter test; format: cell-based; details: microtiter plate, 405 nm, day 7
# Pyricularia oryzae = format: cell-based; details: microtiter plate, 405 nm, day 7
# Puccinia recondita [3] = assay: Protective activity against brown rust of wheat; format: in vivo; details: 16 mg/l, sprayed the day before inoculation
molecule,measurement,setting,value
"Cn1cc(C(=O)Nc2ccccc2-c2cccc(F)c2)c(CF)n1 [No. I.13, N-(3′-fluorobiphenyl-2-yl)-1-methyl-3-fluoromethyl-1H-pyrazole-4-carboxamide]",melting point,,138 to 141 °C
"CC1(C)CC/C(=C\c2ccc(Cl)cc2)C1(O)Cn1cncn1 (stereo not shown) [triticonazole, (5E)-5-[(4-chlorophenyl)methylene]-2,2-dimethyl-1-(1H-1,2,4-triazol-1-ylmethyl)cyclopentanol, reference compound]",Observed activity (% infection),[1],40%
"CC1CCN(c2c(-c3c(F)cc(F)cc3F)c(Cl)nc3ncnn23)CC1 [5-chloro-7-(4-methylpiperidin-1-yl)-6-(2,4,6-trifluorophenyl)-[1,2,4]triazolo[1,5-a]pyrimidine, reference compound]",Observed activity (% infection),Botrytis cinerea; 4 mg/l,40%
same,Observed activity (% infection),Puccinia recondita [2]; 1 mg/l,0%
"COc1ccc(C(=CC(=O)N2CCOCC2)c2ccc(Cl)cc2)cc1OC [dimethomorph, 3-(4-chlorophenyl)-3-(3,4-dimethoxyphenyl)-1-morpholin-4-yl-propenone]",Observed activity (% infection),Puccinia recondita [2]; 1 mg/l,0%
same,Observed activity (% infection),Pyrenophora teres; 16 mg/l,0%
"Cn1cc(C(=O)Nc2ccccc2-c2cccc(Cl)c2)c(C(F)F)n1 [No. I.12, N-(3′-chlorobiphenyl-2-yl)-1-methyl-3-difluoromethyl-1H-pyrazole-4-carboxamide]",melting point,,110 to 112 °C
"zinc ammoniate ethylenebis(dithiocarbamate) [metiram, reference compound]",Observed activity (% infection),Septoria tritici; 1 mg/l,1%
same,Observed activity (% infection),Pyricularia oryzae; 16 mg/l,52%
"COc1cc(C)c(C(=O)c2c(OC)ccc(Br)c2C)c(OC)c1OC [metrafenone, 3′-bromo-2,3,4,6′-tetramethoxy-2′,6-dimethylbenzophenone]",Observed activity (% infection),Puccinia recondita [2]; 1 mg/l,0%
same,Observed activity (% infection),Pyrenophora teres; 16 mg/l,0%
"Cc1nn(C)c(F)c1C(=O)Nc1ccccc1-c1cccc(C#N)c1 [No. I.15, N-(3′-cyanobiphenyl-2-yl)-1,3-dimethyl-5-fluoro-1H-pyrazole-4-carboxamide]",melting point,,137 to 138 °C
"Fc1ccc([C@]2(Cn3cncn3)O[C@H]2c2ccccc2Cl)cc1 (racemic) [epoxiconazole, (2RS,3SR)-1-[3-(2-chlorophenyl)-2,3-epoxy-2-(4-fluorophenyl)propyl]-1H-1,2,4-triazole]",Observed activity (% infection),Pyrenophora teres; 1 mg/l,0%
"Cn1cc(C(=O)Nc2ccccc2-c2cccc(Cl)c2)c(C(F)(F)F)n1 [No. I.1, N-(3′-chlorobiphenyl-2-yl)-1-methyl-3-trifluoromethyl-1H-pyrazole-4-carboxamide]",Observed activity (% infection),Botrytis cinerea; 1 mg/l,0%
same,Observed activity (% infection),[1],0%
same,Observed activity (% infection),Pyrenophora teres; 4 mg/l,26%
same,Observed activity (% infection),Pyricularia oryzae; 4 mg/l,0%
same,melting point,,92 to 94 °C
"Cc1nn(C)c(F)c1C(=O)Nc1ccccc1-c1cccc(C(F)(F)F)c1 [No. I.17, N-(3′-trifluoromethylbiphenyl-2-yl)-1,3-dimethyl-5-fluoro-1H-pyrazole-4-carboxamide]",melting point,,113 to 114 °C
"Cn1cc(C(=O)Nc2ccccc2-c2cccc(Cl)c2)c(CF)n1 [No. I.11, N-(3′-chlorobiphenyl-2-yl)-1-methyl-3-fluoromethyl-1H-pyrazole-4-carboxamide]",melting point,,96 to 99 °C
"Cc1nn(C)c(F)c1C(=O)Nc1ccccc1-c1cccc([N+](=O)[O-])c1 [No. I.16, N-(3′-nitrobiphenyl-2-yl)-1,3-dimethyl-5-fluoro-1H-pyrazole-4-carboxamide]",melting point,,137 to 139 °C
"Cn1cc(C(=O)Nc2ccccc2-c2cccc(C(F)(F)F)c2)c(C(F)F)n1 [No. I.9, N-(3′-trifluoromethylbiphenyl-2-yl)-1-methyl-3-difluoromethyl-1H-pyrazole-4-carboxamide]",Observed activity (% infection),[1],0%
same,Observed activity (% infection),Puccinia recondita [2]; 0.25 mg/l,11%
same,melting point,,124 to 125 °C
"COC(=O)N(OC)c1ccccc1COc1ccn(-c2ccc(Cl)cc2)n1 [pyraclostrobin, methyl N-{2-[1-(4-chlorophenyl)-1H-pyrazol-3-yloxymethyl]phenyl}(N-methoxy)carbamate, reference compound]",Observed activity (% infection),[1],40%
"Cn1cc(C(=O)Nc2ccccc2-c2cccc(C(F)(F)F)c2)c(C(F)(F)F)n1 [No. I.4, N-(3′-trifluoromethylbiphenyl-2-yl)-1-methyl-3-trifluoromethyl-1H-pyrazole-4-carboxamide]",Observed activity (% infection),Puccinia recondita [3],0%
same,Observed activity (% infection),Septoria tritici; 0.25 mg/l,20%
same,melting point,,132 to 134 °C
"Cc1nn(C)cc1C(=O)Nc1ccccc1-c1cccc(Cl)c1 [No. I.10, N-(3′-chlorobiphenyl-2-yl)-1,3-dimethyl-1H-pyrazole-4-carboxamide]",melting point,,104 to 106 °C
"Cn1cc(C(=O)Nc2ccccc2-c2cccc(F)c2)c(C(F)F)n1 [No. I.14, N-(3′-fluorobiphenyl-2-yl)-1-methyl-3-difluoromethyl-1H-pyrazole-4-carboxamide]",melting point,,130 to 135 °C
"Cn1cc(C(=O)Nc2ccccc2-c2cccc(C#N)c2)c(C(F)(F)F)n1 [No. I.5, 1-methyl-3-trifluoromethyl-N-(ortho-(3-cyanophenyl)phenyl)pyrazole-4-carboxamide]",melting point,,76 to 78 °C
